Experimental data reported in PubChem BioAssay (NCI).
Values joined by “and” are separate entries in the source; they are usually repeats but may differ in a detail not shown here. Identical values can stand only once.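 Following 48 hours of exposure in 96-well plates, responses at five concentrations were used to interpolate endpoints linearly. At the GI50, growth is halved. TGI: total growth inhibition.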

Test system: MDA-MB-468 breast
Assay: inhibition of tumour cell growth, NCI panel, 48 h

| SMILES | GI50 | TGI |
| --- | --- | --- |
| CCNNC(=O)[C@@H]1[C@H](c2cc(OC)c(OC)c(OC)c2)c2cc3c(cc2[C@H](O)[C@H]1CO)OCO3 | 0.281 µM |  |
| COc1cccc(CCC(=O)c2cc3c(N)c(C(=O)Nc4cccc(Cl)c4C)sc3nc2C)c1 | 0.288 µM | 2.82 µM |
| CC(C)C[C@H](NC(=O)CCn1ccc2ncccc2c1=O)B(O)O | 2.35 µM | 14.4 µM |
| CCN(CC)CCn1c2ccc(OC)cc2c2sc3cc(OC)ccc3c(=O)c21 | 1.56 µM | 3.21 µM |
| COc1cc(C2CC(=O)Nc3c2ccc2ccccc32)cc(Br)c1OC (configuration not stated) | 0.285 µM | 0.969 µM |
| COc1cccc(C2SC(C)C(=O)N2CCc2cccs2)c1 (configuration not stated) | 2.25 µM | 7.32 µM |
| COc1ccc(Cn2cc3c(c2-c2cc(OC)c(OC)c(OC)c2)CCc2cnoc2-3)cc1N | 0.0251 µM | 0.0735 µM |
| NC(=O)c1ccccc1NC(=O)c1ccccc1Cl | > 100 µM | > 100 µM |
| Nc1nccc2c1ncn2C1OC(CO)C(O)C1O (configuration not stated) | > 100 µM | > 100 µM |
| COC(=O)[C@]12CC[C@@H](C)[C@H](C)[C@@H]1C1=CC[C@@H]3[C@@]4(C)C(C=O)=C[C@@](C)(COS(C)(=O)=O)C4[C@H](O)C[C@@]3(C)[C@]1(C)CC2 (some centres not stated) | 2.08 µM | 4.1 µM |
| Clc1ccc(CNc2nccc(-c3cnn4ncccc34)n2)cc1 | 5.62 µM | 12.7 µM |
| CCOc1nccc2c1nc(-c1nonc1N)n2CC | > 25 µM | > 25 µM |
| Nc1ccc(C(OC(=O)c2cc3ccccc3c(Cc3c(O)c(C(=O)OC(c4ccc(N)cc4)(c4ccc(N)cc4)c4ccc(N)cc4)cc4ccccc34)c2O)(c2ccc(N)cc2)c2ccc(N)cc2)cc1 | 0.252 µM | 2.13 µM |
| COc1cc(NC(=O)NCc2ccco2)ccc1-c1ccc(NC(=O)NCc2ccco2)cc1OC | 1.82 µM | 4.61 µM |
| N#C/C(=C\c1c(-c2ccccc2)[nH]c2ccccc12)C(=O)c1ccccc1 | 5.56 µM | > 100 µM |
| Cc1cc(C)c(S(=O)(=O)N(CCc2cccc(Br)c2)Cc2ccc(-c3cccc(S(C)(=O)=O)c3)cc2)c(C)c1 | > 100 µM | > 100 µM |
| CC(C)C[C@H](NC(=O)[C@@H](NC(=O)c1cccc(-c2ccccc2)n1)[C@@H](C)O)B(O)O | 0.00244 µM | 0.00685 µM |

| SMILES | GI50 | TGI |
| --- | --- | --- |
| Cc1cc(N(CCCNc2ccnc3cc(Cl)ccc23)Cc2ccc3c(c2)OCO3)nc(N2CCCCC2)n1 | 1.95 µM | 4.67 µM |
| COC(=O)[C@H](C)NC(=O)[C@@H](OC)[C@@H]1Cc2cc3cc(OC4CC(OC5CC(O)C(O)C(C)O5)C(O)C(C)O4)c(C)c(O)c3c(O)c2C(=O)[C@H]1OC1CC(OC2CC(OC3CC(C)(O)C(O)C(C)O3)C(O)C(C)O2)C(O)C(C)O1 (some centres not stated) | 0.112 µM | 1.07 µM |
| C[C@@H](COCCC(=O)N1CCN(c2ncc(C(F)(F)F)cn2)CC1)Nc1cn[nH]c(=O)c1C(F)(F)F | 17.9 µM | > 100 µM |
| CCCCCCCCCCCCCCCCCCOc1ccccc1CC(=O)NCC[N+](C)(C)C | 2.47 µM | 6.28 µM |
| CSc1ccc(SC2c3ccc(C)cc3Oc3nc(N)c(C#N)c(N)c32)cc1 (configuration not stated) | 1.74 µM | 3.81 µM |
| CC(=O)Nc1ccc(NC(=O)Nc2cccc(-c3nc(-c4ccc(NC(=O)c5cccnc5)cc4Cl)no3)c2)cc1C(F)(F)F | 0.234 µM | 0.758 µM |
| CN1C[C@@H]2Cn3c(c(C4=C(c5cn(C)c6ccccc56)C(=O)NC4=O)c4ccccc43)C[C@H]2C1 | 4.04 µM and 3.06 µM | 9.12 µM and 6.64 µM |
| COc1ccc(-c2ccc(-c3ccc(C(=N)N)cn3)o2)cc1Cl | 1.84 µM | 3.51 µM |
| COc1ccc(-c2cc(-c3cccc(NS(C)(=O)=O)c3)nc(N)c2C#N)cc1 | 1.35 µM | 6.64 µM |
| COc1cc(F)c(/C=C/c2cc(/C=C/c3cc(OC)c(OC)cc3F)n(-c3cc(F)cc(F)c3)n2)cc1OC | 2.39 µM | 5.72 µM |
| O=C(N/N=C/c1ccc(Cl)cc1Cl)c1ccc2nc(-c3ccc(Cl)cc3)[nH]c2c1 | 1.64 µM | 3.23 µM |
| CCOC(=O)C(=CN1CCNC1=S)C(=O)OCC | > 100 µM | > 100 µM |
| Cc1ncc(C(=O)Nc2ccc(CN3CCN(C)CC3)c(C(F)(F)F)c2)cc1C#Cc1c(N)ncc2ccccc12 | 0.577 µM | 1.15 µM |
| COc1c(Cl)ccc2c(-c3nc4cc(Cl)c(F)cc4s3)cc(=O)oc12 | 4.89 µM | 34.4 µM |
| O=C(COc1cccc(/C=C2\Oc3ccc4ccccc4c3C2=O)c1)c1ccc(Cl)cc1 | 9.62 µM | 43.3 µM |
| Cn1cnc2c(F)c(Nc3ccc(Br)cc3F)c(C(=O)NOCCO)cc21 | 26.9 µM | > 83.4 µM |
| Cc1ccc(Nc2cc(C)nc(NCCCNc3ccnc4cc(Cl)ccc34)n2)cc1 | 1.43 µM | 2.92 µM |
